Measured values taken from patent US9725448B2, “Neprilysin inhibitors” (THERAVANCE BIOPHARMA R&D IP, LLC, priority 2011, dated 2017).

biological target: T1, human NEP (Homo sapiens, UniProt P08473); test: In vitro enzyme inhibition assay at human NEP (fluorogenic peptide substrate); format: biochemical; conditions: pKi values at human NEP (recombinant), given as ranges
T1 construct: purchased R&D Systems, Minneapolis, Minn; 1182-ZN
Method: The inhibitory activities of compounds at human and rat neprilysin (EC 3.4.24.11; NEP) and human angiotensin converting enzyme (ACE) were determined using in vitro assays as described below.
Recombinant human NEP and recombinant human ACE were obtained commercially (R&D Systems, Minneapolis, Minn., catalog numbers 1182-ZN and 929-ZN, respectively). The fluorogenic peptide substrate Mca-D-Arg-Arg-Leu-Dap-(Dnp)-OH (Medeiros et al. (1997) Braz. J. Med. Biol. Res. 30:1157-62; Anaspec, San Jose, Calif.) and Abz-Phe-Arg-Lys(Dnp)-Pro-OH (Araujo et al. (2000) Biochemistry 39:8519-8525; Bachem, Torrance, Calif.) were used in the NEP and ACE assays respectively.
The assays were performed in 384-well white opaque plates at 37° C. using the fluorogenic peptide substrates at a concentration of 10 μM in Assay Buffer (NEP: 50 mM HEPES, pH 7.5, 100 mM NaCl, 0.01% polyethylene glycol sorbitan monolaurate (Tween-20), […]; ACE: 50 mM HEPES, pH 7.5, 100 mM NaCl, 0.01% Tween-20, 1 μM ZnSO4).
Test compounds were assayed over the range of concentrations from 10 μM to 20 pM. Test compounds were added to the enzymes and incubated for 30 minute at 37° C. prior to initiating the reaction by the addition of substrate. Reactions were terminated after 20 minutes of incubation at 37° C. by the addition of glacial acetic acid to a final concentration of 3.6% (v/v).
Plates were read on a fluorometer with excitation and emission wavelengths set to 320 nm and 405 nm, respectively. Inhibition constants were obtained by nonlinear regression of the data using the equation (GraphPad Software, Inc., San Diego, Calif.): ν=ν0/[1+(I/K′)] where ν is the reaction rate, ν0 is the uninhibited reaction rate, I is the inhibitor concentration and K′ is the apparent inhibition constant.
Compounds of the invention were tested in this assay and found to have pKi values at human NEP as follows.

T1 sequence (P08473 52-750 limits assumed): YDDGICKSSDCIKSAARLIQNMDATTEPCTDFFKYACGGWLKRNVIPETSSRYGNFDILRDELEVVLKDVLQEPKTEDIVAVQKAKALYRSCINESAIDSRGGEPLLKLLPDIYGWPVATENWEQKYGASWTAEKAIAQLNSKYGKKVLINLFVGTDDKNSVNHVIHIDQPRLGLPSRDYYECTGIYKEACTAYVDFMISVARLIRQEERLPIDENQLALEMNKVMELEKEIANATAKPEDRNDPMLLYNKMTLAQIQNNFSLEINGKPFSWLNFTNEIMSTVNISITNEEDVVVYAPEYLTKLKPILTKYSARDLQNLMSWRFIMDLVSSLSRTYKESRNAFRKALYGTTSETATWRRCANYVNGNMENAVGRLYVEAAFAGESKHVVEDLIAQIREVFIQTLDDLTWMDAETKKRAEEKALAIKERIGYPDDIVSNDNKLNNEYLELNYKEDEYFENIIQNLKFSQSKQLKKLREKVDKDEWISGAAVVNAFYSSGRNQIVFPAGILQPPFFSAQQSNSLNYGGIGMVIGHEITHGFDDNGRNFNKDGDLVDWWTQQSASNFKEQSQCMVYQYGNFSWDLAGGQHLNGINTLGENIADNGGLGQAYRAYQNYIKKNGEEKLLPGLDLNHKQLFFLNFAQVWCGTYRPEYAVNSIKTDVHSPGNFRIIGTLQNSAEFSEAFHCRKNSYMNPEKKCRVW

| Structure (SMILES) | Ki |
| --- | --- |
| C[C@@](O)(CN(Cc1ccc(-c2cccc(Cl)c2)cc1)NC(=O)c1cc(C(=O)O)ncn1)C(=O)O [Example 7-26, 6-[N′—((R)-2-Carboxy-2-hydroxy-propyl)-N′-(3′-chlorobiphenyl-4-ylmethyl)-hydrazinocarbonyl]-pyrimidine-4-carboxylic acid] | ≤ 1 nM |
| CC(O)(CN(Cc1ccc(-c2ccccc2)cc1)NC(=O)c1cc(O)no1)C(=O)O (stereo not shown) [Example 3B, 3-[N-Biphenyl-4-ylmethyl-N′-(3-hydroxy-isoxazole-5-carbonyl)-hydrazino]-2-hydroxy-2-methyl-propionic acid] | 1.26 to 10 nM |
| C[C@@](O)(CN(Cc1ccc(-c2cc(F)ccc2F)cc1)NC(=O)c1cc(O)no1)C(=O)O [Example 7-18, (R)-3-[N-(2′,5′-Difluorobiphenyl-4-ylmethyl)-N′-(3-hydroxy-isoxazole-5-carbonyl)-hydrazino]-2-hydroxy-2-methyl-propionic acid] | 1.26 to 10 nM |
| CC(O)(C[C@@H](Cc1ccc(-c2ccccc2)cc1)NC(=O)c1cc(Cl)c2nn[nH]c2c1)C(=O)O (stereo partly drawn) [Example 2-5, (R)-5-Biphenyl-4-yl-4-[(7-chloro-3H-benzotriazole-5-carbonyl)-amino]-2-hydroxy-2-methyl-pentanoic acid] | 1.26 to 10 nM |
| COc1ccccc1-c1ccc(CN(C[C@@](C)(O)C(=O)O)NC(=O)c2cc(O)no2)cc1 [Example 7-14, (R)-2-Hydroxy-3-[N′-(3-hydroxy-isoxazole-5-carbonyl)-N-(2′-methoxy-biphenyl-4-ylmethyl)-hydrazino]-2-methyl-propionic acid] | 1.26 to 10 nM |
| CC(O)(CN(Cc1ccc(-c2ccccc2)cc1)NC(=O)c1cnn[nH]1)C(=O)O (stereo not shown) [Example 4-1, 3-[N-Biphenyl-4-ylmethyl-N′-(3H-[1,2,3]triazole-4-carbonyl)-hydrazino]-2-hydroxy-2-methyl-propionic acid] | 12.6 to 100 nM |
| C[C@@](O)(CN(Cc1ccc(-c2cccc(Cl)c2)cc1)NC(=O)c1cc(C(=O)O)n[nH]1)C(=O)O [Example 7-10, 5-[N′—((R)-2-Carboxy-2-hydroxy-propyl)-N′-(3′-chlorobiphenyl-4-ylmethyl)-hydrazinocarbonyl]-1H-pyrazole-3-carboxylic acid] | ≤ 1 nM |
| CC(O)(C[C@@H](Cc1ccc(-c2ccccc2)cc1)NC(=O)c1cc(F)c2nn[nH]c2c1)C(=O)O (stereo partly drawn) [Example 2-4, (R)-5-Biphenyl-4-yl-4-[(7-fluoro-3H-benzotriazole-5-carbonyl)-amino]-2-hydroxy-2-methyl-pentanoic acid] | 1.26 to 10 nM |
| C[C@@](O)(CN(Cc1ccc(-c2cccc(Cl)c2)cc1)NC(=O)c1cnn[nH]1)C(=O)O [Example 7-1, (R)-3-[N-(3′-Chlorobiphenyl-4-ylmethyl)-N′-(3H-[1,2,3]triazole-4-carbonyl)-hydrazino]-2-hydroxy-2-methyl-propionic acid] | 1.26 to 10 nM |
| CC(C)(C[C@@H](Cc1ccc(-c2ccccc2)cc1)NC(=O)c1cc(O)no1)C(=O)O [Example 8A, (R)-5-Biphenyl-4-yl-4-[(3-hydroxy-isoxazole-5-carbonyl)-amino]-2,2-dimethyl-pentanoic acid] | ≤ 1 nM |
| CC(O)(C[C@@H](Cc1ccc(-c2ccccc2)cc1)NC(=O)c1cc(O)no1)C(=O)O (stereo partly drawn) [Example 2-7, (R)-5-Biphenyl-4-yl-2-hydroxy-4-[(3-hydroxy-isoxazole-5-carbonyl)-amino]-2-methyl-pentanoic acid] | ≤ 1 nM |
| C[C@@](O)(CN(Cc1ccc(-c2cc(Cl)ccc2F)cc1)NC(=O)c1cc(O)no1)C(=O)O [Example 6A, (R)-3-[N-(5′-Chloro-2′-fluorobiphenyl-4-ylmethyl)-N′-(3-hydroxy-isoxazole-5-carbonyl)-hydrazino]-2-hydroxy-2-methyl-propionic acid] | ≤ 1 nM |
| CC(O)(CN(Cc1ccc(-c2cccc(F)c2)cc1)NC(=O)c1cc(O)no1)C(=O)O (stereo not shown) [Example 5, 3-[N-(3′-Fluorobiphenyl-4-ylmethyl)-N′-(3-hydroxy-isoxazole-5-carbonyl)-hydrazino]-2-hydroxy-2-methyl-propionic Acid] | 1.26 to 10 nM |
| Cc1ccc(Cl)cc1-c1ccc(CN(C[C@@](C)(O)C(=O)O)NC(=O)c2cc(O)no2)cc1 [Example 7-12, (R)-3-[N-(5′-Chloro-2′-methyl-biphenyl-4-ylmethyl)-N′-(3-hydroxy-isoxazole-5-carbonyl)-hydrazino]-2-hydroxy-2-methyl-propionic acid] | ≤ 1 nM |
| C[C@@](O)(CN(Cc1ccc(-c2cc(Cl)ccc2Cl)cc1)NC(=O)c1cc(O)no1)C(=O)O [Example 7-19, (R)-3-[N-(2′,5′-Dichlorobiphenyl-4-ylmethyl)-N′-(3-hydroxy-isoxazole-5-carbonyl)-hydrazino]-2-hydroxy-2-methyl-propionic acid] | ≤ 1 nM |
| C[C@@](O)(C[C@@H](Cc1ccc(-c2ccccc2)cc1)NC(=O)c1cc(C(=O)O)n[nH]1)C(=O)O [Example 2-13, 5-((1R,3R)-1-Biphenyl-4-ylmethyl-3-carboxy-3-hydroxy-butylcarbamoyl)-1H-pyrazole-3-carboxylic acid] | ≤ 1 nM |
| C[C@@](O)(CN(Cc1ccc(-c2cc(Cl)ccc2F)cc1)NC(=O)c1cn(O)nn1)C(=O)O [Example 7-3, (R)-3-[N-(5′-Chloro-2′-fluorobiphenyl-4-ylmethyl)-N′-(1-hydroxy-1H-[1,2,3]triazole-4-carbonyl)-hydrazino]-2-hydroxy-2-methyl-propionic acid] | ≤ 1 nM |
| C[C@@](O)(CN(Cc1ccc(-c2cccc(Cl)c2)cc1)NC(=O)c1cn(O)nn1)C(=O)O [Example 7-2, (R)-3-[N-(3′-Chlorobiphenyl-4-ylmethyl)-N′-(1-hydroxy-1H-[1,2,3]triazole-4-carbonyl)-hydrazino]-2-hydroxy-2-methyl-propionic acid] | 1.26 to 10 nM |
| C[C@@](O)(C[C@@H](Cc1ccc(-c2ccccc2)cc1)NC(=O)c1cnn[nH]1)C(=O)O [Example 1B, (2R,4R)-5-Biphenyl-4-yl-2-hydroxy-2-methyl-4-[(3H-[1,2,3]triazole-4-carbonyl)-amino]-pentanoic acid] | 1.26 to 10 nM |
| C[C@@](O)(CN(Cc1ccc(-c2ccccc2F)cc1)NC(=O)c1cc(O)no1)C(=O)O [Example 7-17, (R)-3-[N-(2′-Fluorobiphenyl-4-ylmethyl)-N′-(3-hydroxy-isoxazole-5-carbonyl)-hydrazino]-2-hydroxy-2-methyl-propionic acid] | 1.26 to 10 nM |

Next, values leading:

| Ki | Structure (SMILES) |
| --- | --- |
| 12.6 to 100 nM | CNC(=O)c1cc(C(=O)N[C@H](Cc2ccc(-c3ccccc3)cc2)CC(C)(C)C(=O)O)[nH]n1 [Example 9-12, (R)-5-Biphenyl-4-yl-2,2-dimethyl-4-[(5-methylcarbamoyl-2H-pyrazole-3-carbonyl)-amino]-pentanoic acid] |
| 1.26 to 10 nM | COCCN(C)C(=O)c1cc(C(=O)N[C@H](Cc2ccc(-c3ccccc3)cc2)CC(C)(C)C(=O)O)[nH]n1 [Example 9-15, (R)-5-Biphenyl-4-yl-4-({5-[(2-methoxy-ethyl)-methyl-carbamoyl]-2H-pyrazole-3-carbonyl}-amino)-2,2-dimethyl-pentanoic acid] |
| 12.6 to 100 nM | CN(C)C(=O)c1cc(C(=O)N[C@H](Cc2ccc(-c3ccccc3)cc2)CC(C)(C)C(=O)O)[nH]n1 [Example 9-13, (R)-5-Biphenyl-4-yl-4-[(5-dimethylcarbamoyl-2H-pyrazole-3-carbonyl)-amino]-2,2-dimethyl-pentanoic acid] |
| 1.26 to 10 nM | CC(C)(C[C@@H](Cc1ccc(-c2ccccc2)cc1)NC(=O)c1cnc(O)nc1)C(=O)O [Example 9-5, (R)-5-Biphenyl-4-yl-4-[(2-hydroxy-pyrimidine-5-carbonyl)-amino]-2,2-dimethyl-pentanoic acid] |
| ≤ 1 nM | CC(C)(C[C@@H](Cc1ccc(-c2ccccc2)cc1)NC(=O)c1cc(C(=O)O)n[nH]1)C(=O)O [Example 9-6, 5-((R)-1-Biphenyl-4-ylmethyl-3-carboxy-3-methyl-butylcarbamoyl)-1H-pyrazole-3-carboxylic acid] |
| 12.6 to 100 nM | CC(C)CN(C)C(=O)c1cc(C(=O)N[C@H](Cc2ccc(-c3ccccc3)cc2)CC(C)(C)C(=O)O)[nH]n1 [Example 9-14, (R)-5-Biphenyl-4-yl-4-{[5-(isobutyl-methyl-carbamoyl)-2H-pyrazole-3-carbonyl]-amino}-2,2-dimethyl-pentanoic acid] |
| 12.6 to 100 nM | CC(=O)c1cc(C(=O)N[C@H](Cc2ccc(-c3ccccc3)cc2)CC(C)(C)C(=O)O)[nH]n1 [Example 9-18, (R)-4-[(5-Acetyl-2H-pyrazole-3-carbonyl)-amino]-5-biphenyl-4-yl-2,2-dimethyl-pentanoic acid] |
| 12.6 to 100 nM | O=C(N[C@H](Cc1ccc(-c2ccccc2)cc1)CC1(C(=O)O)CC1)c1cc(O)n[nH]1 [Example 11-10, 1-{(R)-3-Biphenyl-4-yl-2-[(5-hydroxy-2H-pyrazole-3-carbonyl)-amino]-propyl}-cyclopropanecarboxylic acid] |
